# Assay results published in patent US7928099B2, “Pyrimido [4,5-D] azepine derivatives as 5-HT2c agonists” (Pfizer Inc, priority 2007, dated 2011).
# Where a name gives a salt, the structure may show the parent alone.
# Assays:
# [1] = molecular target: T1, human recombinant 5-HT2c receptor (Homo sapiens, UniProt P28335); assay: FLIPR fluorescent Ca2+ mobilisation agonist assay in CHO K1 cells (Method 1); assay type: cell-based; settings: for Emax: percentage of mean maximal response to 10 μM 5-HT; for EC50: agonist affinity, FLIPR
# T1 construct: expressed in transfected cells; host or cells: CHO K1 (Chinese hamster ovary), stably transfected
# T1 sequence (P28335 33-458): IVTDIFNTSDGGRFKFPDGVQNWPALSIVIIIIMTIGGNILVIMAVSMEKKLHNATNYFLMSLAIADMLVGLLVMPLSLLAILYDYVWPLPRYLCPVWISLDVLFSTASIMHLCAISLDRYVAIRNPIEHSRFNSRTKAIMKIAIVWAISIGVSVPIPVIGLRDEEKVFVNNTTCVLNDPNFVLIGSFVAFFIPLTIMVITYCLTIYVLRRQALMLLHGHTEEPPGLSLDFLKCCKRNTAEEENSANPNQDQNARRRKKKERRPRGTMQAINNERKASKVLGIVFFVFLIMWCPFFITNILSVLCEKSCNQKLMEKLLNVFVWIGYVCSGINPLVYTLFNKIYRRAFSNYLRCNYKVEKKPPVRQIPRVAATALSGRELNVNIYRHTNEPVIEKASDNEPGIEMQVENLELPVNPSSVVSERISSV
# [2] = molecular target: T1, human recombinant 5-HT2c receptor; assay: 3H-meselurgine radioligand binding SPA, membranes from Swiss 3T3 cells (Method 2); settings: 3H-meselurgine displacement, Cheng-Prusoff; Swiss 3T3 membranes; read-out: Binding Affinity Ki
# Protocol: The compounds of the invention were evaluated for biological activity by measuring the agonist affinity (EC50) and efficacy (Emax) at the human recombinant 5-HT2c receptor expressed in CHO K1 cells, using a fluorescent based Ca^2+ mobilisation assay format compatible with FLIPR technology (Method 1). Additionally, the binding activity of a compound was determined by measuring its affinity for the human recombinant 5-HT2c receptor membranes from Swiss 3T3 cells (Method 2).
# The compounds were tested for biological activity by their ability to inhibit binding of the radioligand ^3H-meselurgine at the human recombinant 5-HT2C receptor expressed in the Swiss 3T3 cells using a scintillation proximity assay (SPA) technology.
# Swiss 3T3 stably transfected with the 5-HT2C receptor were cultured under standard cell culture techniques. Specifically, cells were grown in 50 mL growth medium (Dulbecco's Modified Eagle's Medium (DMEM) culture media supplemented with 10% dialysed foetal calf serum (FCS), 2 mM penicillin/streptomycin and 20 μg/mL geneticin) in 225 cm^2 flasks at 37° C. and 5% CO2. Cells were grown to 60-80% confluency, harvested using trypsin-EDTA and pelleted by centrifugation for long-term storage at −80° C.
# Cell pellets were thawed on ice and resuspended in 3 mL of membrane preparation buffer (see Media and Buffers for composition) per 1 mL of packed cell. The suspension was homogenised on ice for several 5 s intervals using a hand-held homogeniser. The homogenate was then centrifuged at 1,000 rpm for 5 min at 4° C.
# The supernatants were then collected and retained. Initial cell & nuclei pellets (P1) were subsequently rehomogenised and centrifuged using the conditions cited above, and the supernatants collected and pooled with those retained from the first spin.
# The pooled supernatants were centrifuged at 19,500 rpm for 45 min at 4° C., and the supernatants discarded. The pellets (P2) were then resuspended in 3 mL of membrane preparation buffer per 1 mL of the original packed cell volume. Protein concentrations were subsequently measured and the membrane suspension was finally frozen in aliquots of set volume and stored at −80° C. prior to use in assays.
# For each batch of membrane used, optimal concentrations of Polylysine YSi SPA beads and membrane were determined. The assay free radioligand concentration was expressed as a percentage of the total free radioligand concentration to give an estimate of the radioligand depletion.
# The affinity of ^3H-meselurgine for the human recombinant 5-HT2c receptor was determined for each membrane batch at the selected protein and bead concentrations. […] The mean KD for ^3H-meselurgine at a batch of membranes was determined from data from a minimum of three separate assays.
# The required amount of membrane, was thawed on ice and added to a pre-determined volume of bead suspension in 50 mM HEPES buffer, pH 7.4. The beads were then pre-coupled by incubating the predetermined protein quantity per mg of bead on a roller 4° C. for 1 h. Subsequently, the bead/membrane complex was spun down at 1000 rpm for 5 min. The resulting pellet was resuspended in assay buffer at the specific concentration required for the final assay.
# An aliquot of [^3H]-meselurgine stock was diluted in binding assay buffer to give a pre-determined final assay concentration less than the equilibrium dissociation constant (KD) value.
# All test compounds were prepared at a concentration of 4 mM in 100% dimethyl sulphoxide (DMSO) from dry samples.
# The same volume of assay buffer was added to specific wells of the plate to enable subsequent measurement of total radioligand binding. Furthermore, 5 μL of Mianserin at 25 μM (2.5 μM final assay concentration was subsequently added to pre-determined wells to determine non-specific binding (NSB).
# [3] = conscious rats and monkeys; i.v., i.p., s.c. or i.m. administration; cited from earlier work
# [4] = cited from earlier work; for bladder capacity: anaesthetized guinea-pig cystometry; for urethral EMG activity: anaesthetized guinea-pig urethral EMG model
# [5] = anaesthetized dog; cited from earlier work
# [6] = man; cited from earlier work
Compound,"Emax ([1]; CHO-K1, efficacy)",EC50 [1],Ki [2],other results
"OC1CCN(c2nc(Cc3ccccc3)nc3c2CCNCC3)C1 (centres unmarked) [Example 44, 1-(2-benzyl-6,7,8,9-tetrahydro-5H-pyrimido[4,5-d]azepin-4-yl)pyrrolidin-3-ol hydrochloride]",75.5%,136 nM,139 nM,
"C[C@H]1COCCN1c1nc(Cc2ccccc2)nc2c1CCNCC2 [Example 45, 2-benzyl-4-[(3S)-3-methylmorpholin-4-yl]-6,7,8,9-tetrahydro-5H-pyrimido[4,5-d]azepine hydrochloride]",88.4%,69.5 nM,28.4 nM,
"CN(C)c1ncc2c(n1)CCNCC2 [Example 50, N,N-dimethyl-6,7,8,9-tetrahydro-5H-pyrimido[4,5-d]azepin-2-amine hydrochloride]",100%,481 nM,552 nM,
"CCc1nc(Cc2ccccc2)nc2c1CCNCC2 [Example 52, 2-Benzyl-4-ethyl-6,7,8,9-tetrahydro-5H-pyrimido[4,5-d]azepine]",71.6%,314 nM,142 nM,
"c1ccc(Cc2nc3c(c(C4CC4)n2)CCNCC3)cc1 [Example 53, 2-Benzyl-4-cyclopropyl-6,7,8,9-tetrahydro-5H-pyrimido[4,5-d]azepine]",49.6%,293 nM,105 nM,
"c1ccc(Cc2nc3c(c(-n4ccnc4)n2)CCNCC3)cc1 [Example 55, 2-Benzyl-4-imidazol-1-yl-6,7,8,9-tetrahydro-5H-pyrimido[4,5-d]azepine]",72.6%,263 nM,380 nM,
"Clc1cccc(Cc2ncc3c(n2)CCNCC3)c1 [Example 56, 2-(3-Chlorobenzyl)-6,7,8,9-tetrahydro-5H-pyrimido[4,5-d]azepine]",,180 nM,83.9 nM,Emax ([1]; efficacy): 55.9%
"CCOc1nc(C(C)c2ccccc2)nc2c1CCNCC2 (centres unmarked) [Example 59, 4-Ethoxy-2-(1-phenylethyl)-6,7,8,9-tetrahydro-5H-pyrimido[4,5-d]azepine]",33.1%,107 nM,49.3 nM,
"Fc1ccc(Cc2ncc3c(n2)CCNCC3)cc1 [Example 62, 2-(4-Fluorobenzyl)-6,7,8,9-tetrahydro-5H-pyrimido[4,5-d]azepine]",59.6%,309 nM,471 nM,
"FC(F)(F)c1cccc(Cc2ncc3c(n2)CCNCC3)c1 [Example 63, 2-[3-(Trifluoromethyl)benzyl]-6,7,8,9-tetrahydro-5H-pyrimido[4,5-d]azepine]",44.1%,298 nM,308 nM,
"Cc1cccc(Cc2ncc3c(n2)CCNCC3)c1 [Example 65, 2-(3-Methylbenzyl)-6,7,8,9-tetrahydro-5H-pyrimido[4,5-d]azepine]",83.9%,211 nM,244 nM,
"Cc1ccccc1Cc1ncc2c(n1)CCNCC2 [Example 66, 2-(2-Methylbenzyl)-6,7,8,9-tetrahydro-5H-pyrimido[4,5-d]azepine]",70.5%,332 nM,304 nM,
"Cc1nc(Cc2ccccc2)nc2c1CCNCC2 [Example 68, 2-Benzyl-4-methyl-6,7,8,9-tetrahydro-5H-pyrimido[4,5-d]azepine]",71.4%,179 nM,421 nM,
"CCCCc1nc(Cc2ccccc2)nc2c1CCNCC2 [Example 69, 2-Benzyl-4-butyl-6,7,8,9-tetrahydro-5H-pyrimido[4,5-d]azepine]",77.1%,274 nM,153 nM,
"COc1nc(C(F)(F)c2ccccc2)nc2c1CCNCC2 [Example 72, 2-(Difluoro-phenyl-methyl)-4-methoxy-6,7,8,9-tetrahydro-5H-pyrimido[4,5-d]azepine]",41.1%,80 nM,77.7 nM,
"COc1nc(C(F)(F)c2ccccc2)nc2c1CCNCC2 [Example 72A, 2-(Difluoro-phenyl-methyl)-4-methoxy-6,7,8,9-tetrahydro-5H-pyrimido[4,5-d]azepine hydrochloride]",,35.6 nM,15 nM,Emax ([1]; efficacy): 31.9%
"CN(CC1CC1)c1nc(N2CCSCC2)nc2c1CCNCC2 [Example 90, N-(cyclopropylmethyl)-N-methyl-2-thiomorpholin-4-yl-6,7,8,9-tetrahydro-5H-pyrimido[4,5-d]azepin-4-amine]",87.3%,75.9 nM,24.7 nM,
"CCNc1nc(N(C)CC)nc2c1CCNCC2 [Example 98, N-2,N-4-diethyl-N-2-methyl-6,7,8,9-tetra-hydro-5H-pyrimido[4,5-d]-azepin-4-amine]",61.7%,77 nM,16.3 nM,
"CN(C)c1nc(N(C)CC2CC2)nc2c1CCNCC2 [Example 104, N-2-(cyclopropylmethyl)-N-2,N-4,N-4-trimethyl-6,7,8,9-tetrahydro-5H-pyrimido[4,5-d]azepine-2,4-diamine]",69%,282 nM,90.3 nM,
"C1CCN(c2nc3c(c(N4CCSCC4)n2)CCNCC3)C1 [Example 106, 2-pyrrolodin-1-yl-4-thiomorpholin-4-yl-6,7,8,9-tetrahydro-5H-pyrimido[4,5-d]azepine]",78.4%,100 nM,41.6 nM,
C[C@H](N)Cn1ccc2cc(F)c(Cl)cc21 [Ro-60-0175],,,,penile erection [3]: enhance penile erection; bladder capacity [4]: doses related increases; urethral EMG activity [4]: doses related increases; urethral pressure [5]: increased urethral pressure in a dose-dependent manner
CCc1cc2c(ccc3cnn(C[C@H](C)N)c32)o1 [YM348],,,,bladder capacity [4]: doses related increases; urethral EMG activity [4]: doses related increases
Clc1cccc(N2CCNCC2)c1 [m-CPP],,,,penile erection [3]: enhance penile erection; bladder capacity [4]: doses related increases; urethral EMG activity [4]: doses related increases; proerectile activity [6]: associated with proerectile activity
O=c1n(CCCN2CCN(c3cccc(Cl)c3)CC2)nc2ccccn12 [trazodone],,,,proerectile activity [6]: associated with proerectile activity
